Data set [1] in a line: Grinding with mortar and pestle, XRD of the ground sample. The class given is physicochemical. Particulars: 100 mg ground with mortar and pestle for a few minutes. As to the method:
Another method for preparing armodafinil Form I comprises grinding armodafinil Form IV. Preferably, the grinding is carried out over a period of about 1 minute to about 5 minutes, more preferably, about 1 min. Depending on the amount of armodafinil Form IV, different grinding methods may be used. For example, 200 mg of armodafinil Form IV is ground with a mortar and pestle for 1 minute.
Armodafinil Form IV (100 mg) was ground with mortar and pestle for a few minutes forming a ground sample.

Data set [2] is described as follows: Stability of the crystal form under pressure of 2-10 tons (tablet compression). It is filed as physicochemical. The protocol: Form A is stable by pressure of about 2-10 tons which is used in the compression stage during the tablet preparation.
A further method of preparing armodafinil Form I comprises submitting armodafinil Form IV to a pressure of about 2 tons to about 10 tons to obtain armodafinil Form I. Preferably, the pressure is applied for a period of about 1 minute to about 5 minutes. The time will depend upon the amount of armodafinil Form IV; for example, armodafinil 100 mg of Form IV is pressed with 10 tons for 1 minute.
Armodafinil Form IV (100 mg) was pressed with pressure of 2 tons or 10 tons for 1 min forming a pressed sample.

A short description of data set [3]: Heating at 145° C., XRD of the heated sample. It is filed as physicochemical. Particulars: 200 mg heated at 145° C. for 10 min. As to the method: Armodafinil Form I may also be prepared by drying armodafinil Form IV. Preferably, the process comprises heating armodafinil Form IV to a temperature of about 120° C. to 150° C. for at least about 10 minutes. Preferably, the heating is to a temperature of about 145° C. Preferably, the heating is conducted over a period of about 15 minutes about 30 minutes. For example, armodafinil Form IV 200 mg is heated for about 10 minutes. Form IV may be prepared according to WO 2004/060858.
Armodafinil Form IV (200 mg) was heated at 145° C. for 10 min forming a heated sample.

A short description of data set [4]: Exposure to 100% relative humidity, followed by TGA and XRD. It is filed as physicochemical. The protocol:
Another embodiment of the invention encompasses armodafinil monohydrate. Armodafinil monohydrate may be prepared by a method comprising exposing armodafinil Form 1 to 100% relative humidity at a temperature of about 30° C. to about 60° C. for at least 7 days. Preferably, the heating is to a temperature of about 30° C. to about 40° C. In one example 200 mg of armodafinil Form I is heated at 30° C. in 100% relative humidity for 13 days.
X-Ray powder diffraction data were obtained by using methods known in the art. A SCINTAG powder X-ray diffractometer model X′TRA equipped with a solid-state detector was employed with copper radiation of 1.5418 Å and a round aluminum sample holder with zero background. The scanning parameters included: range: 2-40 degrees two-theta; scan mode: continuous scan; step size: 0.05 deg.; and a rate of 5 deg/min. All peak positions are within ±0.2 degrees two theta.
TGA analysis was performed using a Metler M3 thermo gravimeter. Samples of about 8 mg were analyzed in standard 150 μl alumina crucibles covered by lids with 1 hole. Each sample was scanned at a rate of 10° C./min from 25° C. to 200° C. A blank was subtracted from the sample. The oven was constantly purged with nitrogen gas at a flow rate of 40 ml/min.
Armodafinil Form A (200 mg) was exposed to 100% humidity for 7 days at 30° C. The XRD diffractogram of armodafinil Form I is illustrated in FIG. 3.

The conditions of data set [5]: Prisinzano et al., Tetrahedron: Asymmetry (2004); cited from earlier work.
The mark [6] stands for this setting: Form A exposed to 100% humidity for 7 days at 30° C.
Where [7] appears, read: Form A, Initial (before exposure).
[8] abbreviates: Form I exposed to 100% Relative Humidity at 30° C. for 13 days.
The mark [9] stands for this setting: Form I exposed to 100% Relative Humidity at 60° C. for 13 days.
Setting [10] is: Form I, Initial (Table 1, 30° C. study).
[11] abbreviates: Form I, Initial (Table 2, 60° C. study).

Take `NC(=O)C[S@@+]([O-])C(c1ccccc1)c1ccccc1` [Armodafinil Form IV, 2-[(R)-(diphenylmethyl)sulfinyl]acetamide]: the “Crystal form (by XRD) of ground sample” value in data set [1] is “Form I”. Further, the “Crystal form (by XRD) of pressed sample” value in data set [2] (100 mg pressed with 2 tons or 10 tons for 1 min) is recorded as “Form I”. In addition, in data set [3], the “Crystal form (by XRD) of heated sample” value is reported as “Form I”.
As to `NC(=O)C[S@@+]([O-])C(c1ccccc1)c1ccccc1` [Armodafinil Form A, 2-[(R)-(diphenylmethyl)sulfinyl]acetamide], the “% Weight loss (by TGA)” value in data set [4] (setting [6]) stood at 3.5%; in data set [4] (setting [7]), 0.3%. Also, the “Crystal form (by XRD)” value in data set [4] (setting [6]) is recorded as “Form I”; in data set [4] (setting [7]), “Form A”. In data set [2] (pressure of about 2-10 tons, as used in the compression stage of tablet preparation), the Stability by pressure entry is on record as “stable”.
`NC(=O)C[S@@+]([O-])C(c1ccccc1)c1ccccc1` (single isomer, unassigned) [S enantiomer]: the “Elimination from the body compared with the R enantiomer” value in data set [5] is recorded as “three times faster”.
As to `NC(=O)C[S@@+]([O-])C(c1ccccc1)c1ccccc1` [armodafinil Form I, 2-[(R)-(diphenylmethyl)sulfinyl]acetamide], the “% Weight loss (by TGA)” value was 5.6% in data set [4] (setting [8]), 7.4% in data set [4] (setting [9]), 0.1% in data set [4] (setting [10]) and 0.1% in data set [4] (setting [11]). For the same compound, the “Crystal form (by XRD)” value in data set [4] (setting [8]), in data set [4] (setting [9]), in data set [4] (setting [10]) and in data set [4] (setting [11]) was “Form I” in each case.
